Values quoted from earlier work, collected in patent publication US20120190734A1, “COMPOUNDS AND COMPOSITIONS FOR TREATING INFECTION” (priority 2011, published 2012).

Key:
[1] = system: herpes simplex virus (HSV-2)
[2] = target: HIV-1 reverse transcriptase (Human immunodeficiency virus type 1 group M subtype B, UniProt P04585)

Compound	anti-herpes simplex virus (HSV-2) activity in vitro [1]	effect on HIV-1 reverse transcriptase activity [2]	further results
O=c1cc(-c2ccc(O)cc2)oc2cc(O)cc(O)c12 [5,7,4-truhydroxyflavone]			anti-influenza virus activity (influenza virus): anti-influenza virus activity
O=C(O[C@@H]1O[C@@H]2COC(=O)c3cc(O)c(O)c(O)c3-c3c(cc(O)c(O)c3O)C(=O)O[C@H]2[C@H](OC(=O)c2cc(O)c(O)c(O)c2)[C@H]1OC(=O)c1cc(O)c(O)c(O)c1)c1cc(O)c(O)c(O)c1 [Eugeniin]	exhibited anti-herpes simplex virus (HSV-2) activity		
COC(=O)c1cc(O)c(O)c(O)c1 [methyl gallate]	exhibited anti-herpes simplex virus (HSV-2) activity		
COCc1cc2cc(OC)c(OC)cc2c(-c2ccc3c(c2)OCO3)c1C=O [phyllamycin B]		inhibitory effect	
COc1cc2cc3c(c(-c4ccc5c(c4)OCO5)c2cc1OC)COC3=O [retrojusticiden B]		inhibitory effect	
Prunellin			minimum inhibition concentration against HIV-1 in vitro (HIV-1): 2.2 µg/mL
